# Key:
# Hs683 (human glioma) = assay: Growth inhibition, MTT colorimetric assay, HS683; format: cell-based; conditions: Homo sapiens, Hs 683, 72 h; glioma; 3 days with drug; means of six values; unit inferred; read-out: IC50 HS683
# Outline: (§1)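 Human tumour cell lines were exposed to compounds for 3 days. Proliferation inhibition was read by MTT colorimetric assay and expressed as IC50. Values are means of six determinations.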
# RhTP (rhabdomyosarcoma) = assay: Growth inhibition, MTT colorimetric assay, RhTp; format: cell-based; conditions: 72 h; 3 days with drug; means of six values; unit inferred; read-out: IC50 RhTp
# Outline: (§2)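 Growth inhibition: cells cultured with drug 3 days, then MTT colorimetric readout. Cytotoxic activity given as IC50.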
# PPARγ = biological target: T1, PPARγ (Homo sapiens, UniProt P37231); assay: PPAR in vitro cellular (transactivation) assay in MCF-7 cells; format: cell-based
# T1 construct: endogenous in cells; host or cells: MCF-7
# T1 sequence (P37231 whole entry): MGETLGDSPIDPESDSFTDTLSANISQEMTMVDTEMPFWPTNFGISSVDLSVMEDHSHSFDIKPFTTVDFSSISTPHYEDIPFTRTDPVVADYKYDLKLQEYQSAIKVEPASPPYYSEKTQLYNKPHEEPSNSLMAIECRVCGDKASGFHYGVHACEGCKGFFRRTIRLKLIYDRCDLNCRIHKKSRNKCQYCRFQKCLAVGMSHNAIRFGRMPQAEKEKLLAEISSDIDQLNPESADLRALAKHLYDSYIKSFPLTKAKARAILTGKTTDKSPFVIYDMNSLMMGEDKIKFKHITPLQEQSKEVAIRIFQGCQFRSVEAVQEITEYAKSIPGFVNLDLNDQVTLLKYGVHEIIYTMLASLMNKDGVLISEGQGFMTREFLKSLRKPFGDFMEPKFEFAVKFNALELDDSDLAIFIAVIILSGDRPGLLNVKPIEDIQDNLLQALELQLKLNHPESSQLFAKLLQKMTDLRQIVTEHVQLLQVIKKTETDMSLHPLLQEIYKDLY
# Description: Compounds BPM18,708 and BPM19,107 were selected as representative analogues and tested in a PPAR in vitro cellular assay. Thiazolidinediones rosiglitazone and troglitazone were used as reference PPARγ agonists.
# For transfection experiments, MCF-7 cells were cultured in six-well plates in 2 ml DMEM:F12 supplemented with 5% FBS. When cells were 50-60% confluent, siRNA duplexes and/or reporter gene constructs were transfected using OligofectAMINE reagent (Invitrogen). According to methods described in previous studies siRNAs were transfected in each well to give a final concentration of 70 nM. Cells were harvested in 48-56 h after transfection by manual scraping in lysis buffer (Promega). Whole cell extracts were frozen in liquid nitrogen for 30 s, vortexed by 30 s, and centrifuged to give lysates cell lysates from this experiment were analyzed for PPARγ protein by Western blot analysis. Relative intensities of the PPARγ protein were compared with a nonspecific band and results of three replicate studies were determined in the various treatment groups.
# Whole cell lysates were extracted using Western sampling buffer. Protein samples were heated at 100 C for 5 min, separated on 10% SDS-PAGE and transferred to polyvinylidene difluoride (PVDF) membrane (Amersham Pharmacia Biotech, Piscataway, N.J.). […]
# [1] = system: HT-22, an immortalized mouse hippocampal cell line; assay: Neuroprotection of HT-22 cells against toxic insults (calcein viability assay); format: cell-based
# Description: It is known (P. Aoun, 2003 Eur. J. Pharm. 472:65-71) that Peroxisome proliferator-activated receptors (PPARs) are involved in regulating many metabolic and inflammatory processes. The present invention explores the role of PPAR ligands in protecting neuronal cultures from toxic insults. For that purpose, the new PPAR agonists described in Example 1 were screened for their potential role as neuroprotective compounds. Experiments were performed using HT-22, an immortalized mouse hippocampal cell line, and SK-N-SH, a human neuroblastoma cell line. HT-22 was selected because it expresses PPARγ receptors. Cell viability against glutamate, hydrogen peroxide (H2O2), and serum deprivation insults was determined using a calcein assay. […] Additionally, compounds were protective even when administered simultaneously with glutamate, or for up to 8 h postglutamate insult.
# HT-22, an immortalized mouse hippocampal cell line, and SK-N-SH, a human neuroblastoma cell line, were used. HT-22 cells were obtained from David Schubert (Salk Institute, San Diego, Calif.). The HT-22 line was originally selected from HT-4 cells based on glutamate sensitivity. SK-N-SH cells were obtained from ATCC (Manassas, Va.). HT-22 and SK-N-SH cells were grown to confluency in Dulbecco's modified essential medium (DMEM) and RPMI-1640 media, respectively, and supplemented with 10% charcoal/dextran-treated fetal bovine serum (FBS) and […] gentamicin at 37° C. under 95% air/5% CO2. HT-22 cells were plated at a density of 50,000 cells/ml (5000 cells/well), and SK-N-SH cells were plated at a density of 120,000-150,000 cells/ml (12,000-15,000 cells/well) in 96-well plates. In most studies, wells were pretreated with PPAR ligands over a wide dose range at various times prior to being subjected to either glutamate, hydrogen peroxide, or serum deprivation insults. In some studies, the insults were applied prior to the addition of the PPAR ligand.
# The following analogues were tested on the HT22 cell line for their neuroprotective effect against glutamate insult and for their anti-inflammatory activity on relevant, models including HT22 cell line.
# GL19 = assay: Growth inhibition, MTT colorimetric assay, GL19; format: cell-based; conditions: GL19, 72 h; 3 days with drug; means of six values; unit inferred; read-out: IC50 GL19
# Outline: as §2
# LoVo (colon cancer) = assay: Growth inhibition, MTT colorimetric assay, LoVo; format: cell-based; conditions: Homo sapiens, LoVo, 72 h; carcinoma; 3 days with drug; means of six values; unit inferred; read-out: IC50 LoVo
# Outline: as §1
# caspases 8 = assay: Caspases 8 activation in HL60 cells (IEDT reagent); format: cell-based, human; conditions: 48 hours, 1 μM, 0.1 μM and 0.01 μM
# Description: 7223, using standard commercially available diagnostic kits (Calbiochem, USA). Assay reagents used were DEVD for caspases 3/7, […] for caspases 8, and LEHD for caspases 9. Moreover, colchicine was used as reference compound that induces this activity of caspases.
# B16-F10 (mouse melanoma) = assay: Growth inhibition, MTT colorimetric assay, B16F10; format: cell-based; conditions: Mus musculus, B16-F10, 72 h; melanoma; 3 days with drug; means of six values; unit inferred; read-out: IC50 B16F10
# Outline: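 Cells were cultured with compound for 3 days, and inhibition of proliferation was read by MTT colorimetric assay. Values are IC50, each the mean of six determinations with standard errors below 5% of the mean.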
structure (smiles),measurement,setting,value
"Oc1ccc(CN(Cc2ccc(C(F)(F)F)cc2)Cc2ccc(O)c3ncccc23)c2cccnc12 [BPM18,708, 5,5′-(4-(trifluoromethyl)benzylazanediyl)bis(methylene)diquinolin-8-ol]",IC50,Hs683 (human glioma),10 nM
same,IC50,RhTP (rhabdomyosarcoma),81 nM
same,PPARγ ligand/agonist activity in transactivation assays,PPARγ,ligands and agonists of PPARγ
same,neuroprotection from H2O2 insult,[1],dose-dependent neuroprotection
same,neuroprotection from glutamate insult,[1],dose-dependent neuroprotection
same,IC50,GL19,1240 nM
same,IC50,LoVo (colon cancer),10 nM
same,activation of caspases 8,caspases 8,no effect
same,IC50,B16-F10 (mouse melanoma),92 nM
